Measurements from patent US10611750B2, “Tetrahydroquinoline compositions as bet bromodomain inhibitors” (FORMA Therapeutics, Inc., priority 2013, dated 2020).
Where two headings read alike, the source gives them in different places.

Columns and labels:
[1] = target: T1, BRD4 Bromodomain 2 (BRD4 BD2) (Homo sapiens, UniProt O60885); experiment: AlphaScreen binding assay, BRD4 BD2; conditions: His-tagged BRD4 BD2 100 nM, biotinylated H4 (1-21) K5/8/12/16 tetra-acetylated peptide 100 nM, compounds listed under IC50 range headings
T1 construct: 333-460 were cloned, expressed, and purified to homogeneity
Summary of the method: (§1)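 An AlphaScreen competition format was used with His-BRD4 BD1 or BD2 and biotin-H4 K5/8/12/16-acetyl peptide, each at matched final levels of 50 nM (BD1) or 100 nM (BD2). Incubation in HEPES/NaCl buffer with 0.1% BSA and 0.01% Triton X-100 ran ≥1 h before IC50 determination.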

[2] = target: T2, BRD4 Bromodomain 1 (BRD4 BD1) (Homo sapiens, UniProt O60885); experiment: AlphaScreen binding assay, BRD4 BD1; conditions: His-tagged BRD4 BD1 50 nM, biotinylated H4 (1-21) K5/8/12/16 tetra-acetylated peptide 50 nM, compounds listed under IC50 range headings
T2 construct: 44-168 and BRD4 BD2
Summary of the method: as §1

[3] = system: acute myelocytic leukemia (AML) cell line MV4-11; experiment: Oncology cell growth assay (3-day proliferation, CellTiter-Glo); type: cell-based; conditions: Homo sapiens, MV4-11 cells, 3000 cells/well, compounds listed under IC50 range headings, read-out: MV411 IC50 (gIC50, inhibition of proliferation)
Summary of the method: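 MV4-11 AML cells (RPMI 1640, 10% FBS) plated at 3000 cells/well and exposed 72 h to compound at final 10 to 0.0045 μM (3-fold series). Viability read by CellTiter-Glo luminescence; gIC50 from four-parameter logistic fit between DMSO control and no-cell background.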

| Compound | IC50 [1] [nM] | IC50 [2] [nM] | IC50 ([3]; MV4-11, 72 h) [nM] | IC50 ([3]; 72 hours) [nM] |
| --- | --- | --- | --- | --- |
| CC(=O)N1c2ccc(-c3cnn(C4CC4)c3)c(OC3CC(F)(F)C3)c2CC[C@@H]1C [I-51, (S)-1-(6-(1-cyclopropyl-1H-pyrazol-4-yl)-5-(3,3-difluorocyclobutoxy)-2-methyl-3,4-dihydroquinolin-1(2H)-yl)ethanone] | < 50 | 100 to 1000 | < 500 |  |
| C[C@H]1CCc2c(ccc(-c3cn(C)nn3)c2OC2CCC2)N1C(=O)C1CC1 [I-53, (S)-(5-cyclobutoxy-2-methyl-6-(1-methyl-1H-1,2,3-triazol-4-yl)-3,4-dihydroquinolin-1 (2H)-yl)(cyclopropyl)methanone] | < 50 | 100 to 1000 | < 500 |  |
| COC(=O)N1c2ccc(-c3cnn(C4CS(=O)(=O)C4)c3)c(OC3CCC3)c2CC[C@@H]1C [I-61, Methyl (S)-5-cyclobutoxy-6-(1-(1,1-dioxidothietan-3-yl)-1H-pyrazol-4-yl)-2-methyl-3,4-dihydroquinoline-1(2H)-carboxylate] | 50 to 500 | 100 to 1000 | < 500 |  |
| COC(=O)N1c2ccc(-c3cnn(C4CCCS(=O)(=O)C4)c3)c(OC3CCC3)c2CC[C@@H]1C (stereo partly drawn) [I-62, Methyl (2S)-5-cyclobutoxy-6-(1-(1,1-dioxidotetrahydro-2H-thiopyran-3-yl)-1H-pyrazol-4-yl)-2-methyl-3,4-dihydroquinoline-1(2H)-carboxylate] | < 50 | 100 to 1000 | < 500 |  |
| COC(=O)N1c2ccc(-c3cnn(C4CCOCC4)c3)c(OC3CCC3)c2CC[C@@H]1C [I-68, (S)-methyl 5-cyclobutoxy-2-methyl-6-(1-(tetrahydro-2H-pyran-4-yl)-1H-pyrazol-4-yl)-3,4-dihydroquinoline-1(2H)-carboxylate] | < 50 | 100 to 1000 | < 500 |  |
| CC(=O)N1c2ccc(-c3cnn(C4CC4)c3)c(Oc3ncc4ccccc4n3)c2CC[C@@H]1C [I-77, (S)-1-(6-(1-cyclopropyl-1H-pyrazol-4-yl)-2-methyl-5-(quinazolin-2-yloxy)-3,4-dihydroquinolin-1(2H)-yl)ethanone] | < 50 | 100 to 1000 | < 500 |  |
| CC(=O)N1c2ccc(-c3cnn(C4CC4)c3)c(Oc3ncccc3C(N)=O)c2CC[C@@H]1C [I-81, (S)-2-(1-acetyl-6-(1-cyclopropyl-1H-pyrazol-4-yl)-2-methyl-1,2,3,4-tetrahydroquinolin-5-yloxy)nicotinamide] | 50 to 500 | 100 to 1000 | < 500 |  |
| CC(=O)N1c2ccc(-c3cnn(C4CC4)c3)c(Oc3cnccn3)c2CC[C@@H]1C [I-88, (S)-1-(6-(1-cyclopropyl-1H-pyrazol-4-yl)-2-methyl-5-(pyrazin-2-yloxy)-3,4-dihydroquinolin-1(2H)-yl)ethanone] | < 50 | 100 to 1000 | < 500 |  |
| CC(=O)N1c2ccc(-c3cnn(C4CC4)c3)c(Oc3ccnc(C(F)(F)F)n3)c2CC[C@@H]1C [I-93, (S)-1-(6-(1-cyclopropyl-1H-pyrazol-4-yl)-2-methyl-5-(2-(trifluoromethyl)pyrimidin-4-yloxy)-3,4-dihydroquinolin-1(2H)-yl)ethanone] | 50 to 500 | 100 to 1000 | < 500 |  |
| C[C@H]1CCc2c(ccc(-c3cnn(C4CCNCC4)c3)c2OC2CCC2)N1C(=O)C1CC1 [I-99, (2S)-5-cyclobutoxy-1-cyclopropanecarbonyl-2-methyl-6-[1-(piperidin-4-yl)-1H-pyrazol-4-yl]-1,2,3,4-tetrahydroquinoline] | < 50 | 100 to 1000 | < 500 |  |
| C[C@H]1CCc2c(ccc(-c3cnn(C4CNC4)c3)c2OC2CCC2)N1C(=O)C1CC1 [I-101, (S)-(6-(1-(azetidin-3-yl)-1H-pyrazol-4-yl)-5-cyclobutoxy-2-methyl-3,4-dihydroquinolin-1(2H)-yl)(cyclopropyl)methanone] | < 50 | 100 to 1000 | < 500 |  |
| CCCOc1c(-c2cnn(C3CCNCC3)c2)ccc2c1CC[C@H](C)N2C(=O)OC [I-107, (S)-methyl 2-methyl-6-(1-(piperidin-4-yl)-1H-pyrazol-4-yl)-5-propoxy-3,4-dihydroquinoline-1(2H)-carboxylate] | 50 to 500 | 100 to 1000 |  | < 500 |

Continued, in another order:

| IC50 [1] [nM] | IC50 [2] [nM] | IC50 ([3]; MV4-11, 72 h) [nM] | Compound | IC50 ([3]; 72 hours) [nM] |
| --- | --- | --- | --- | --- |
| ≥ 500 | ≥ 10000 | > 1000 | CC(=O)N1c2ccc(-c3cnn(C4CC4)c3)c(OC3CNC3)c2CC[C@@H]1C [I-60, (S)-1-(5-(azetidin-3-yloxy)-6-(1-cyclopropyl-1H-pyrazol-4-yl)-2-methyl-3,4-dihydroquinolin-1(2H)-yl)ethanone] |  |
| < 50 | 100 to 1000 | < 500 | CC(=O)N1c2ccc(-c3cnn(C4CC4)c3)c(OCC(C)(C)F)c2CC[C@@H]1C [I-67, (S)-1-(6-(1-cyclopropyl-1H-pyrazol-4-yl)-5-(2-fluoro-2-methylpropoxy)-2-methyl-3,4-dihydroquinolin-1 (2H)-yl)ethanone] |  |
| 50 to 500 | 100 to 1000 | < 500 | CC(=O)N1c2ccc(-c3cnn(C4CC4)c3)c(Oc3nc4ccccc4o3)c2CC[C@@H]1C [I-78, (S)-1-(5-(benzo[d]oxazol-2-yloxy)-6-(1-cyclopropyl-1H-pyrazol-4-yl)-2-methyl-3,4-dihydroquinolin-1(2H)-yl)ethanone] |  |
| < 50 | 100 to 1000 | < 500 | CC(=O)N1c2ccc(-c3cnn(CCO)c3)c(Oc3ncccn3)c2CC[C@@H]1C [I-80, (S)-1-(6-(1-(2-hydroxyethyl)-1H-pyrazol-4-yl)-2-methyl-5-(pyrimidin-2-yloxy)-3,4-dihydroquinolin-1 (2H)-yl)ethanone] |  |
| 50 to 500 | 1000 to 10000 | 500 to 1000 | CC(=O)N1c2ccc(-c3cnn(C4CC4)c3)c(Oc3ncc4cn[nH]c4n3)c2CC[C@@H]1C [I-82, (S)-1-(5-(1H-pyrazolo[3,4-d]pyrimidin-6-yloxy)-6-(1-cyclopropyl-1H-pyrazol-4-yl)-2-methyl-3,4-dihydroquinolin-1(2H)-yl)ethanone] |  |
| < 50 | 1000 to 10000 | < 500 | CC(=O)N1c2ccc(-c3cnn(C4CC4)c3)c(Oc3nccs3)c2CC[C@@H]1C [I-83, (S)-1-(6-(1-cyclopropyl-1H-pyrazol-4-yl)-2-methyl-5-(thiazol-2-yloxy)-3,4-dihydroquinolin-1(2H)-yl)ethanone] |  |
| < 50 | 100 to 1000 | < 500 | CC(=O)N1c2ccc(-c3cnn(C4CC4)c3)c(Oc3ncccc3C#N)c2CC[C@@H]1C [I-84, (S)-2-(1-acetyl-6-(1-cyclopropyl-1H-pyrazol-4-yl)-2-methyl-1,2,3,4-tetrahydroquinolin-5-yloxy)nicotinonitrile] |  |
| < 50 | 100 to 1000 | < 500 | CC(=O)N1c2ccc(-c3cnn(C4CC4)c3)c(Oc3ncccc3C(F)(F)F)c2CC[C@@H]1C [I-86, (S)-1-(6-(1-cyclopropyl-1H-pyrazol-4-yl)-2-methyl-5-(3-(trifluoromethyl)pyridin-2-yloxy)-3,4-dihydroquinolin-1 (2H)-yl)ethanone] |  |
| 50 to 500 | 100 to 1000 | < 500 | CC(=O)N1c2ccc(-c3cnn(C4CC4)c3)c(Oc3ccccn3)c2CC[C@@H]1C [I-89, (S)-1-(6-(1-cyclopropyl-1H-pyrazol-4-yl)-2-methyl-5-(pyridin-2-yloxy)-3,4-dihydroquinolin-1(2H)-yl)ethanone] |  |
| 50 to 500 | 100 to 1000 | < 500 | CC(=O)N1c2ccc(-c3cnn(C4CC4)c3)c(Oc3ccc(C#N)nn3)c2CC[C@@H]1C [I-91, (S)-6-(1-acetyl-6-(1-cyclopropyl-1H-pyrazol-4-yl)-2-methyl-1,2,3,4-tetrahydroquinolin-5-yloxy)pyridazine-3-carbonitrile] |  |
| < 50 | 100 to 1000 | < 500 | CC(=O)N1c2ccc(-c3cnn(C4CC4)c3)c(Oc3ncc(C)cn3)c2CC[C@@H]1C [I-92, (S)-1-(6-(1-cyclopropyl-1H-pyrazol-4-yl)-2-methyl-5-(5-methylpyrimidin-2-yloxy)-3,4-dihydroquinolin-1 (2H)-yl)ethanone] |  |
| < 50 | 100 to 1000 | < 500 | CCCOc1c(-c2cnn(C3CCNCC3)c2)ccc2c1CC[C@H](C)N2C(=O)C1CC1 [I-100, (S)-cyclopropyl(2-methyl-6-(1-(piperidin-4-yl)-1H-pyrazol-4-yl)-5-propoxy-3,4-dihydroquinolin-1(2H)-yl)methanone] |  |
| < 50 | 100 to 1000 | < 500 | CCCOc1c(-c2cnn(C3CNC3)c2)ccc2c1CC[C@H](C)N2C(=O)C1CC1 [I-102, (S)-(6-(1-(azetidin-3-yl)-1H-pyrazol-4-yl)-2-methyl-5-propoxy-3,4-dihydroquinolin-1(2H)-yl)(cyclopropyl)methanone] |  |
| < 50 | < 100 | < 500 | CCCOc1c(-c2cnn(C3CCNCC3)c2)ccc2c1CC[C@H](C)N2C(C)=O [I-104, (S)-1-(2-methyl-6-(1-(piperidin-4-yl)-1H-pyrazol-4-yl)-5-propoxy-3,4-dihydroquinolin-1 (2H)-yl)ethanone] |  |
